According to patent US20080292584A1 (priority 2005, published 2008):
“And” between values parts separate entries of the source, which are not always exact repeats. Equal values may be shown once.

Experiments:
CYP2A6 [1] = molecular target: T1, CYP2A6 (Homo sapiens, UniProt P11509); test: Metabolism of metaxalone by expressed recombinant human CYP2A6 (Example 1); settings: 30 min;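 further: expressed P450 incubations started with NADPH regenerating system, 0.5 mL final volume, compared against metabolic negative controls, with background signal estimated from matrix controls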
T1 sequence (P11509 1-494): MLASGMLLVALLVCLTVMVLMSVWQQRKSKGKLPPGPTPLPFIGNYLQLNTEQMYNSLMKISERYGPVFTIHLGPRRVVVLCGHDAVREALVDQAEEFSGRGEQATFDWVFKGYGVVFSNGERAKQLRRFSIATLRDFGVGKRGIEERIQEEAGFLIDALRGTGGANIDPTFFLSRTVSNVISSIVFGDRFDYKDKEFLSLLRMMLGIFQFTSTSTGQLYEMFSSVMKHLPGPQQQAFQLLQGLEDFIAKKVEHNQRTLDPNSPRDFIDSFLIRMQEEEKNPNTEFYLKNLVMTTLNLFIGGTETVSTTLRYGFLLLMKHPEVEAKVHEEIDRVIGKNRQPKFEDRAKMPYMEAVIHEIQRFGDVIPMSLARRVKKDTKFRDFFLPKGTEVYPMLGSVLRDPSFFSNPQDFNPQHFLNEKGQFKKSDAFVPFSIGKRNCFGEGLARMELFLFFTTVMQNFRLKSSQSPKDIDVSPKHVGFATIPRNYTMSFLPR
Method: (§1) Commercially available microsomes from baculovirus-infected insect cells containing singly-expressed recombinant wild-type (*1 allele) human CYP enzymes and cDNA-expressed human cytochrome p450 oxidoreductase [BD SUPERSOMES Enzymes; BD Biosciences Discovery Labware (Woburn, Mass.)] were used.
(§2) After a 5-minute pre-incubation, an NADPH regenerating system (NRS) was added to the incubation mixtures to initiate reactions, with a final incubation volume of 0.5 mL. Incubations were continued for 30 minutes, and then terminated, except for those for CYP2C19, which were incubated for 36 minutes prior to termination.
(§3) Matrix controls were performed to determine the background signal from the matrix components (microsomes (10 pmol p450), 01N Tris buffer, NRS, and 1% methanol). […] After a 5-minute pre-incubation, 2% sodium bicarbonate solution was added to the incubation mixtures. Incubation was for 30 minutes at a final volume of 0.5 mL. Matrix and metabolic negative controls were terminated by adding an equal volume of methanol. […] Analysis of samples was subsequent to storage at −70° C.

CYP2A6 [2] = test: Induction/inhibition of CYP2A6 activity in cryopreserved human hepatocytes (coumarin); type: in vitro ADME
From the text: Hepatocytes from three human donors were obtained from a cryopreserved hepatocyte bank (In Vitro Technologies, Inc., USA). After thawing, viable hepatocytes were transferred to collagen-coated 48-well plates for attachment in plating medium (DMEM stock (Dulbecco's modified Eagle's medium, supplemented with bovine serum albumin, fructose, N-(2-hydroxyethyl)piperazine-N′-(2-ethanesulfonate) (HEPES), and sodium bicarbonate), supplemented with antibiotics, bovine serum, hydrocortisone, insulin and minimum essential medium (MEM) nonessential amino acids). After attachment to the collagen matrix, plating medium was replaced with sandwich medium (plating medium supplemented with VITROGEN) and incubated until use.
The supplemented KHB was replaced with 150 μL supplemented KHB containing the appropriate isoform-selective substrate and incubated for 4 hrs prior to termination by adding 150 μL ice-cold methanol, except for the CYP2C8 incubations which were terminated by adding 150 μL acetonitrile.
All substrates were dissolved in acetonitrile.
Replicate trials and controls were performed. […] Additionally, reference control samples were included to evaluate inducibility of CYP2B6, CYP2C9, and CYP2C19 in the test system.
Mean specific activity values with associated p-values≦0.05 were deemed to be statistically significant.

CYP2C8 = molecular target: T2, CYP2C8 (Homo sapiens, UniProt P10632); test: Metabolism of metaxalone by expressed recombinant human CYP2C8 at 5 or 20 pmol (Example 4); settings: for % Turnover Mean / [metaxalone] Mean / % Turnover % / [metaxalone]: 60 min; for % Turnover % / [metaxalone]: single replicates
T2 sequence (P10632 1-490): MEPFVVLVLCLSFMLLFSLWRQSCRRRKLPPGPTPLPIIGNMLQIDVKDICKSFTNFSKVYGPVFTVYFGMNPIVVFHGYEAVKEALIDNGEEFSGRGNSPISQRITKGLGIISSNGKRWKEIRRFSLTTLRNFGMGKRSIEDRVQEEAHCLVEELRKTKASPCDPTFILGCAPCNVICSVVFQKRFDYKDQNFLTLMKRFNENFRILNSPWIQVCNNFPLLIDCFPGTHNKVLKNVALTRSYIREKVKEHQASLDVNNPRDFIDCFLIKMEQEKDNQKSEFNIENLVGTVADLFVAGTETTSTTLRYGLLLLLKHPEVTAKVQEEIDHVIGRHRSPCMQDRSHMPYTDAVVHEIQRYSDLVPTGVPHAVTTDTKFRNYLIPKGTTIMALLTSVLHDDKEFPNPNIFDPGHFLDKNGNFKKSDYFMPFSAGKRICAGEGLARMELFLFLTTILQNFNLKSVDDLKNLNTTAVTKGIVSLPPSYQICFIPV

CYP2C19 = CYP2C19 (Homo sapiens, UniProt P33261); test: Metabolism of metaxalone by expressed recombinant human CYP2C19 (Example 1); settings: for Metaxalone Present Adjusted Individual / Metaxalone Present Adjusted Mean ± SD / Metaxalone Present Raw / Percent of Metabolic Negative Control Individual / Percent of Metabolic Negative Control Mean ± SD: 36 min;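 on all read-outs here: microsomes with expressed CYP2C19 (10 pmol P450) in Tris buffer with 1% methanol, reaction started by an NADPH regenerating system after 5 min preincubation, 0.5 mL volume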
Sequence of CYP2C19 (P33261 whole entry): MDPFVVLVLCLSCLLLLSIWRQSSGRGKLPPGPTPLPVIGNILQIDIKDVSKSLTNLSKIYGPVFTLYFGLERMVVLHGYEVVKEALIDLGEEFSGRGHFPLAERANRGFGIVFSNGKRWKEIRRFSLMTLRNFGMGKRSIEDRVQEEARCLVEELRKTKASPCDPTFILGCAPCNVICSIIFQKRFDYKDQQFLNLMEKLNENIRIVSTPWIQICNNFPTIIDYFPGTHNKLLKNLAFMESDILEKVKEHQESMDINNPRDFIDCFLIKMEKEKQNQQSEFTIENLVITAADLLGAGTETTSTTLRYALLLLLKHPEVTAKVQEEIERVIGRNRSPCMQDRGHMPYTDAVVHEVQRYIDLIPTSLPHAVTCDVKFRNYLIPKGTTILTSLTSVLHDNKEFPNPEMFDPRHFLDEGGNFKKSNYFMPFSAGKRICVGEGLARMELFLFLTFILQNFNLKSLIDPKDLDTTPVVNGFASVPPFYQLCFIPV
Method: as §1, §2, §3

[3] = 0.75 μM metaxalone, 5 pmol cyp, listed as Metaxalone
[4] = 0.75 μM metaxalone, 20 pmol cyp
[5] = 0.75 μM metaxalone, 20 pmol cyp, listed as Metaxalone
[6] = 7.5 μM metaxalone, 5 pmol cyp, listed as Metaxalone
[7] = 7.5 μM metaxalone, 20 pmol cyp, listed as Metaxalone

For `Cc1cc(C)cc(OCC2CNC(=O)O2)c1` (stereo not drawn) [metaxalone, 5-[(3,5-dimethylphenoxy)methyl]-2-oxazolidinone], the “Metaxalone Present Adjusted Individual” value (CYP2A6 [1]; metaxalone 0.5 μM) was 0.309 µM and 0.302 µM and 0.285 µM, the “Metaxalone Present Adjusted Mean ± SD” value (CYP2A6 [1]; metaxalone 0.5 μM) was 0.299 ± 0.0124 µM and the “Metaxalone Present Raw” value (CYP2A6 [1]; metaxalone 0.5 μM) was 0.1546 µM and 0.1511 µM and 0.1425 µM. The “Percent of Metabolic Negative Control Individual” value (CYP2A6 [1]; metaxalone 0.5 μM) was 99.5% and 97.2% and 91.7%, the “Percent of Metabolic Negative Control Mean ± SD” value (CYP2A6 [1]; metaxalone 0.5 μM) was 96.1 ± 3.99% and the “Metaxalone Present Adjusted Individual” value (CYP2A6 [1]; metaxalone 2.5 μM) was 1.58 µM and 1.60 µM and 1.65 µM. The “Metaxalone Present Adjusted Mean ± SD” value (CYP2A6 [1]; metaxalone 2.5 μM) was 1.61 ± 0.0373 µM, the “Metaxalone Present Raw” value (CYP2A6 [1]; metaxalone 2.5 μM) was 0.7913 µM and 0.7979 µM and 0.8264 µM and the “Percent of Metabolic Negative Control Individual” value (CYP2A6 [1]; metaxalone 2.5 μM) was 104% and 105% and 109%. For the same molecule, the “Percent of Metabolic Negative Control Mean ± SD” value (CYP2A6 [1]; metaxalone 2.5 μM) was 106 ± 2.46%, the “Metaxalone Present Adjusted Individual” value (CYP2A6 [1]; metaxalone 25 μM) was 15.5 μM and 15.7 μM (2×) and the “Metaxalone Present Adjusted Mean ± SD” value (CYP2A6 [1]; metaxalone 25 μM) was 15.6 ± 0.0975 µM. For the same molecule, the “Metaxalone Present Raw” value (CYP2A6 [1]; metaxalone 25 μM) was 7.764 µM and 7.85 µM and 7.846 µM, the “Percent of Metabolic Negative Control Individual” value (CYP2A6 [1]; metaxalone 25 μM) was 101% and 102% (2×) and the “Percent of Metabolic Negative Control Mean ± SD” value (CYP2A6 [1]; metaxalone 25 μM) was 102 ± 0.636%. The Inducer/Inhibitor (CYP2A6 [2]; CYP isozyme 2A6, summary of studies) was 0, the “Percent of VC” value (CYP2A6 [2]; Donor 1, Metaxalone 0.4 μM) was 100% and the “Specific Activity Individual” value (CYP2A6 [2]; Donor 1, Metaxalone 0.4 μM) was less than 2.68 pmol/min/million cells. The “Specific Activity Mean ± SD” value (CYP2A6 [2]; Donor 1, Metaxalone 0.4 μM) was less than 2.68 ± 0.000 pmol/min/million cells, the “Percent of VC” value (CYP2A6 [2]; Donor 1, Metaxalone 4 μM) was 100% and the “Specific Activity Individual” value (CYP2A6 [2]; Donor 1, Metaxalone 4 μM) was less than 2.68 pmol/min/million cells. The “Specific Activity Mean ± SD” value (CYP2A6 [2]; Donor 1, Metaxalone 4 μM) was less than 2.68 ± 0.000 pmol/min/million cells, the “Percent of VC” value (CYP2A6 [2]; Donor 1, Metaxalone 40 μM) was 100% and the “Specific Activity Individual” value (CYP2A6 [2]; Donor 1, Metaxalone 40 μM) was less than 2.68 pmol/min/million cells. For the same molecule, the “Specific Activity Mean ± SD” value (CYP2A6 [2]; Donor 1, Metaxalone 40 μM) was less than 2.68 ± 0.000 pmol/min/million cells, the “Percent of VC” value (CYP2A6 [2]; Donor 2, Metaxalone 0.4 μM) was 100% and the “Specific Activity Individual” value (CYP2A6 [2]; Donor 2, Metaxalone 0.4 μM) was less than 2.68 pmol/min/million cells. For the same molecule, the “Specific Activity Mean ± SD” value (CYP2A6 [2]; Donor 2, Metaxalone 0.4 μM) was less than 2.68 ± 0.000 pmol/min/million cells, the “Percent of VC” value (CYP2A6 [2]; Donor 2, Metaxalone 4 μM) was 100% and the “Specific Activity Individual” value (CYP2A6 [2]; Donor 2, Metaxalone 4 μM) was less than 2.68 pmol/min/million cells. For the same molecule, the “Specific Activity Mean ± SD” value (CYP2A6 [2]; Donor 2, Metaxalone 4 μM) was less than 2.68 ± 0.000 pmol/min/million cells, the “Percent of VC” value (CYP2A6 [2]; Donor 2, Metaxalone 40 μM) was 100% and the “Specific Activity Individual” value (CYP2A6 [2]; Donor 2, Metaxalone 40 μM) was less than 2.68 pmol/min/million cells. For the same molecule, the “Specific Activity Mean ± SD” value (CYP2A6 [2]; Donor 2, Metaxalone 40 μM) was less than 2.68 ± 0.000 pmol/min/million cells, the “Percent of VC” value (CYP2A6 [2]; Donor 3, Metaxalone 0.4 μM) was 100% and the “Specific Activity Individual” value (CYP2A6 [2]; Donor 3, Metaxalone 0.4 μM) was less than 2.68 pmol/min/million cells. For the same molecule, the “Specific Activity Mean ± SD” value (CYP2A6 [2]; Donor 3, Metaxalone 0.4 μM) was less than 2.68 ± 0.000 pmol/min/million cells, the “Percent of VC” value (CYP2A6 [2]; Donor 3, Metaxalone 4 μM) was 100% and the “Specific Activity Individual” value (CYP2A6 [2]; Donor 3, Metaxalone 4 μM) was less than 2.68 pmol/min/million cells. The “Specific Activity Mean ± SD” value (CYP2A6 [2]; Donor 3, Metaxalone 4 μM) was less than 2.68 ± 0.000 pmol/min/million cells, the “Percent of VC” value (CYP2A6 [2]; Donor 3, Metaxalone 40 μM) was 100% and the “Specific Activity Individual” value (CYP2A6 [2]; Donor 3, Metaxalone 40 μM) was less than 2.68 pmol/min/million cells. The “Specific Activity Mean ± SD” value (CYP2A6 [2]; Donor 3, Metaxalone 40 μM) was less than 2.68 ± 0.000 pmol/min/million cells, the “effects on CYP activity” value (CYP2A6 [2]; any of the tested concentrations (0.4, 4.0, 40 μM)) was “no significant effects” and the “% Turnover Mean” value (CYP2C8; 0.75 μM metaxalone, 5 pmol cyp) was −9.3%. The “[metaxalone] Mean” value (CYP2C8; 0.75 μM metaxalone, 5 pmol cyp) was 0.865 µM, the “% Turnover %” value (CYP2C8; [3]) was −2.6% and −10.9% and −14.3% and the “[metaxalone]” value (CYP2C8; [3]) was 0.812 µM and 0.877 µM and 0.905 µM. For the same molecule, the “% Turnover Mean” value (CYP2C8; [4]) was 2.9%, the “[metaxalone] Mean” value (CYP2C8; [4]) was 0.768 µM and the “% Turnover %” value (CYP2C8; [5]) was 0.19% and 6.1% and 2.5%. The “[metaxalone]” value (CYP2C8; [5]) was 0.790 µM and 0.743 µM and 0.771 µM, the “% Turnover Mean” value (CYP2C8; 7.5 μM metaxalone, 5 pmol cyp) was 3.0% and the “[metaxalone] Mean” value (CYP2C8; 7.5 μM metaxalone, 5 pmol cyp) was 8.20 µM. For the same molecule, the “% Turnover %” value (CYP2C8; 7.5 μM metaxalone, 5 pmol cyp) was −1.6%, the “% Turnover %” value (CYP2C8; [6]) was 0.21% and the “[metaxalone]” value (CYP2C8; [6]) was 7.58 µM and 8.43 µM and 8.58 µM. For the same molecule, the “% Turnover Mean” value (CYP2C8; 7.5 μM metaxalone, 20 pmol cyp) was 9.3%, the “[metaxalone] Mean” value (CYP2C8; 7.5 μM metaxalone, 20 pmol cyp) was 7.66 µM and the “% Turnover %” value (CYP2C8; [7]) was 4.3% and 10.2% and 13.4%. The “[metaxalone]” value (CYP2C8; [7]) was 8.09 µM and 7.59 µM and 7.31 µM, the Substrate (CYP2C8; CYP isozyme 2C8, summary of studies) was “+” and the “mean disappearance of metaxalone” value (CYP2C19; 0.5 μM metaxalone) was 6.6%. For the same molecule, the “Metaxalone Present Adjusted Individual” value (CYP2C19; metaxalone 0.5 μM) was 0.335 µM and 0.344 µM and 0.356 µM, the “Metaxalone Present Adjusted Mean ± SD” value (CYP2C19; metaxalone 0.5 μM) was 0.345 ± 0.0104 µM and the “Metaxalone Present Raw” value (CYP2C19; metaxalone 0.5 μM) was 0.1677 µM and 0.1718 µM and 0.1781 µM. For the same molecule, the “Percent of Metabolic Negative Control Individual” value (CYP2C19; metaxalone 0.5 μM) was 90.8% and 93.0% and 96.4%, the “Percent of Metabolic Negative Control Mean ± SD” value (CYP2C19; metaxalone 0.5 μM) was 93.4 ± 2.82% and the “Metaxalone Present Adjusted Individual” value (CYP2C19; metaxalone 2.5 μM) was 1.34 μM (2×) and 1.35 μM. The “Metaxalone Present Adjusted Mean ± SD” value (CYP2C19; metaxalone 2.5 μM) was 1.34 ± 0.00561 µM, the “Metaxalone Present Raw” value (CYP2C19; metaxalone 2.5 μM) was 0.6722 µM and 0.6725 µM and 0.6675 µM and the “Percent of Metabolic Negative Control Individual” value (CYP2C19; metaxalone 2.5 μM) was 96.7% (2×) and 96.0%. The “Percent of Metabolic Negative Control Mean ± SD” value (CYP2C19; metaxalone 2.5 μM) was 96.5 ± 0.404%, the “Metaxalone Present Adjusted Individual” value (CYP2C19; metaxalone 25 μM) was 18.7 μM (2×) and 18.5 μM and the “Metaxalone Present Adjusted Mean ± SD” value (CYP2C19; metaxalone 25 μM) was 18.6 ± 0.120 µM. The “Metaxalone Present Raw” value (CYP2C19; metaxalone 25 μM) was 9.345 µM and 9.359 µM and 9.249 µM, the “Percent of Metabolic Negative Control Individual” value (CYP2C19; metaxalone 25 μM) was 92.9% and 93.0% and 91.9% and the “Percent of Metabolic Negative Control Mean ± SD” value (CYP2C19; metaxalone 25 μM) was 92.6 ± 0.597%.
